Measurements: patent publication US20050171005A1, “Methods and compositions for modulating beta-catenin phosphorylation” (priority 2002, published 2005)

Assays:
β-catenin [1] = type: cell-based, human; details: 293 cells
Procedure: (§1) 293T cells were transiently transfected using the calcium phosphate procedure. The following expression vectors were used: Myc- or Flag-tagged β-catenin (0.5 μg) (a human β-catenin clone obtained from R. Grosschedl), Flag- or Myc-tagged axin (2 μg) (mouse cDNA provided by F. Costantini), HA-GSK3β or Flag-GSK3β (3.5 μg) (a rabbit clone obtained from J R Woodgett) [Woodgett, J. R. (1990) EMBO J 9: 2431-2438]. β-catenin mutants include DP, (S33, S37, T40, S45, S47 substituted to alanine) single point mutants (S29F, S33Y, S37A, T41A, S45F) and 45PKA (T41S, T42R, A43R). Additional vectors: Flag-WD, a dominant negative β-TrCP fragment (ΔF-box) [Yaron, A. et al. (1998) Nature 396: 590-594]; Flag-Dvl-1 (a mouse cDNA clone obtained from S-I Yanagawa) [Lee, J. S. et al. (1999) J Biol Chem 274: 21464-21470]; WT and dominant negative Xenopus CKIε (XCKIε-D128N) (provided by T. Shcwarz-Romond) [McKay, R. M. et al. (2001) Dev Biol 235: 378-387]. 24-48 hr after transfection, cells were harvested and processed for the various experiments. MG-132 (Sigma) was used at 20 μM for 5 hr; LiCl (40 mM) was added for 6 hr, and CKI-7 (100 μM) for 16 hr prior to harvesting. β-catenin, axin or GSK-30 in cell lysates were detected using anti-Myc (Ab-1, Oncogenes Research Products, 2 μg/ml), anti-Flag (M2, Sigma, 1 μg/ml) and anti-HA (12CA5 ascites fluid; 1:5000) antibodies, respectively. GFP expression was monitored with anti-GFP antibody (JL-8, Clontech, 1 μg/ml). In some experiments (FIG. 4) GSK-3β was detected using anti-GSK-3β monoclonal antibodies (clone 7, Transduction Laboratories, 0.1 μg/ml). Endogenous and exogenous β-catenin (FIGS. 5d and 6a) were detected with anti-β-catenin antibodies (clone 14, Transduction Laboratories) (0.25 μg/ml).
Western blot and mass spectrometry (MS). Three different commercial anti-β-catenin phospho-peptide antibodies were used: i) Anti-phospho-Thr41/Ser 45 (Cell Signaling Technology), a polyclonal antibody specific for both pT41 and pS45 (otp41,45). ii) Anti-phospho-Ser33/37/Thr41 (Cell Signaling Technology), a polyclonal antibody recognizing pS33 (αp33). These two polyclonal antibodies were used at a 1:1000 dilution, according to the manufacturer's instructions. iii) anti-phospho-Ser 33/37 (BC-22, Sigma), a monoclonal antibody specific for pS37 (used as ascites fluid at a 1:3000 dilution; αp37). Antibody specificities were determined by phosphopeptide inhibition studies. D^32S(PO4)GIHSGATTTAPS^45 abolished the αp33, but not the αp37 signal; D^32SGIHS(PO4)GATTTAPS^45 blocked the αp37 but not the αp33 signal. […] Proteins for MS analysis were immunopurified by M2 Flag-affinity beads (Sigma), separated by SDS-PAGE, Coomassie stained and the β-catenin bands were in-gel digested with endoproteinase Asp-N. The resulting peptides were desalted on small columns, eluted with 20% MeOH, 5% HCOOH, and analyzed by nanoelectrospray mass spectrometry [Yaron et al. (1998) id ibid.], using a quadrupole time-of-flight mass spectrometer (PE-Sciex, Canada).
GSK-3β is traditionally known to target the phosphorylation of +4P-primed substrates [Frame, S. et al. (2001) Mol Cell 7: 1321-1327], a specificity supported by recent structural studies of the enzyme [Dajani, R. et al (2001) Cell 105: 721-732]. The fact that the S45 phosphorylation site is not preceded by a +4P priming site led to the proposition that the molecular complex of axin and GSK-3β is capable of bypassing the priming requirement of the uncomplexed enzyme [Cohen and Frame (2001) id ibid.]. To assess the contribution of GSK-30 in axin-mediated S45 phosphorylation, two types of experiments were carried out. In the first set, 293 cells were incubated prior to harvesting with LiCl, a GSK-3β inhibitor capable of mimicking a Wnt effect [Klein, P. S. and D. A. Melton (1996) Proc Natl Acad Sci USA 93: 8455-8459; Stambolic, V. et al. (1996) Curr Biol 6: 1664-1668].

endogenous β-catenin = assay: Phosphorylation of endogenous β-catenin in proteasome-inhibited HeLa cells with kinase inhibitors; type: cell-based; details: CKI-7 100 μM; for S33 phosphorylation of endogenous β-catenin: LiCl 40 mM
Procedure: FIG. 5d: Effects of specific kinase inhibitors on the phosphorylation of endogenous β-catenin at S41,45 and S33 in HeLa cells. CKI-7 was used at 100 μM, H89 at 5 μM and LiCl at 40 mM. β-catenin was detected with anti-β-catenin antibody, or anti-phospho-p-catenin antibodies.
as §1
Western blot and mass spectrometry (MS). Three different commercial anti-β-catenin phospho-peptide antibodies were used: i) Anti-phospho-Thr41/Ser 45 (Cell Signaling Technology), a polyclonal antibody specific for both pT41 and pS45 (otp41,45). ii) Anti-phospho-Ser33/37/Thr41 (Cell Signaling Technology), a polyclonal antibody recognizing pS33 (αp33). […] Antibody specificities were determined by phosphopeptide inhibition studies. […]
In another set of experiments the in vivo role of CKI in S45 phosphorylation was analyzed, using two dominant negative CKIε constructs (dnXCKIε K85R and D128N) [McKay et al. (2001) id ibid.] and a specific CKI inhibitor (CKI-7) [Chijiwa, T. et al. (1989) J Biol Chem 264: 4924-4927]. […]

MITF-M promoter = assay: pGL3-MITF/M luciferase reporter assay in LB33B1 melanoma cells; type: cell-based; details: reporter-transfected B1 (LB33B1) cells; 20 mM LiCl for 24 hours
Procedure: FIG. 10c: MITF transcriptional activity requires β-catenin phosphorylation. The two related melanoma cell lines LB33A1 and LB33B1 were transfected with the pGL3-MITF/M luciferase reporter plasmid [Takeda et al. (2000) J Biol Chem 275: 14013-6] alone or together with DvlΔPDZ expression plasmid. 24 hours after transfection, one sample of cells was treated with 20 mM LiCl for 24 hours, as indicated. Cells were harvested and their lysate luciferase activity was determined using Promega's Luciferase Assay System. MITF-M transcriptional activity is expressed in Relative Luciferase Units (RLU). A TCF mutant-site reporter (pGL3-MITF/M195.3) was used to control TCF-independent transcription.
Cells were transfected with the TOPFLASH or pGL3-MITF/M luciferase reporter plasmids [Korinek et al., (1997) Science, 275: 1752-3; Takeda et al. (2000) J. Biol. Chem. 275: 14013-6] and the relevant expression plasmid combinations. 24 hours after transfection the cells were harvested. Luciferase activity was determined in the cells' lysate using Promega's Luciferase Assay System. The transcription activity is expressed in Relative Luciferase Units (RLU). TCF mutant-site reporters (FOPFLASH and pGL3-MITF/M195.3) were used to control TCF-independent transcriptional transactivation. […]

LB33B1 cells = assay: LB33B1 melanoma cell growth, live cell count 24 hours post treatment; type: cell-based; details: increasing concentrations of CKI7, live cells counted 24 hours post treatment
Procedure: FIG. 10d: Blocking β-catenin phosphorylation in a melanoma cell line affects cell growth. LB33B1 cells were treated with increasing concentrations of the S45 phosphorylation inhibitor CKI7 and live cells were counted 24 hours post treatment. • Abbreviations: U.T., untreated or untransfected; Rel. ce. numb. 24 hrs. po. treat., relative cell numbers 24 hours post-treatment.
(§2) The highly metastatic melanoma cell line LB33B1 (B1) is a derivative of the low grade malignant LB33A1 (A1) cells [Ikeda H. et al., (1997) Immunity 6(2): 199-208]. Both cell lines harbor a similar high content of β-catenin, irrespective of proteasome inhibition, yet the B1 β-catenin is phosphorylated (FIG. 10b). […] To assess the contribution of phosphorylated versus non-phosphorylated β-catenin to the MITF-transcriptional activity, reporter-transfected B1 cells were treated with LiCl, which suppresses GSK3 phosphorylation, or cotrasfected with Dvl-ΔPDZ, which cannot cooperate with Frat1, yet suppresses S45 phosphorylation. […] Abrogating β-catenin phosphorylation in melanoma cells may compromise their growth and indeed, treatment of B1 melanoma cells with CKI7, a small-molecule specific CKI inhibitor, slowed their proliferation (FIG. 10d) along with suppressing the phosphorylation of β-catenin (data not shown).

β-catenin [2] = assay: β-catenin phosphorylation in B1 melanoma cells; type: cell-based; details: data not shown
Procedure: as §2

[3] = MG-132 treated, LiCl 40 mM for 6 hr

SMILES | S45 phosphorylation of T41A mutated β-catenin (β-catenin [1]; MG-132 treated, LiCl 40 mM) | axin-induced S33/37 phosphorylation of wt β-catenin (β-catenin [1]; [3]) | axin-induced T41/S45 phosphorylation signal of wt β-catenin (β-catenin [1]; [3]) | MS analysis of S45 peptides, treated versus non-treated cells (β-catenin [1]; data not shown) | S33 phosphorylation of endogenous β-catenin (endogenous β-catenin) | MITF promoter activity (MITF-M promoter) | axin-induced p45 signal of wt β-catenin (β-catenin [1]; CKI-7 100 μM for 16 hr) | constitutive S45 phosphorylation of 45PKA β-catenin (β-catenin [1]; CKI-7 100 μM for 16 hr, H89 data not shown) | S45/T41 phosphorylation of endogenous β-catenin (endogenous β-catenin) | proliferation of B1 melanoma cells (LB33B1 cells) | phosphorylation of β-catenin (β-catenin [2])
[Cl-].[Li+] [LiCl] | no effect | abolished | minimally affected | no difference | exclusively blocked | inhibition |  |  |  |  | 
NCCNS(=O)(=O)c1ccc(Cl)c2ccncc12 [CKI-7] |  |  |  |  | suppressed |  | diminished | did not affect | suppressed | slowed | suppressing
